{"source": "paper PMC3356383", "about": "“Efficacious Intermittent Dosing of a Novel JAK2 Inhibitor in Mouse Models of Polycythemia Vera” (PLoS ONE, 2012)", "key": {"[1]": {"tested_on": "bone marrow cell populations", "assay": "Cell populations in bone marrow of normal mice", "type": "in vivo", "details": "54 mpk", "procedure": "(§1) Cells were stained in PBS, 0.5% BSA with antibodies for 15 min on ice. Stained cells were acquired on a 4-laser LSR-II (BD Biosciences) and data analyzed using FlowJo software (Treestar). Dead cells were labeled with the blue fluorescent LIVE/DEAD reactive dye (Invitrogen) and excluded from the analysis.\n(§2) Monoclonal antibodies (anti-mouse): CD3, CD4, CD5, CD8, CD11b, CD19, CD21/35, CD23, CD25, CD43, CD44, CD49b, CD69, CD71, CD93, CD117, B220, GR-1, IgD, NK1.1, NKG2A/C/E, NKG2D, Ter119 were purchased from BD Biosciences; CD4, CD8, CD49b, CD62L, TCRβ, TCRγδ from eBioscience; GR-1 from Invitrogen; CD43 from Miltenyi Biotec. Goat anti-mouse IgM-FITC, (μ chain specific) from Jackson Immuno Research.\n(§3) JAK2 and its family members JAK1 and JAK3 are known to signal downstream of cytokines that play essential roles in the development of lymphoid cell populations. To examine more thoroughly the effects of JAK2 inhibition on lymphoid cells, we analyzed wild-type (C57BL/6) mice treated with 54 mpk MRLB-11055 for 3 days, 6 days or up to 5 cycles of 3 days (“on”) followed by a 4 day holiday (“off”).\nSupplementary file pone.0037207.s006.doc: Table S4 Effect of MRLB-11055 on Cell Populations in Bone Marrow of Normal Mice. Cell counts measured by Advia. Cycles refer to 3 days of treatment followed by a 4 day holiday. *p<0.05 in Student T test when comparing vehicle 5 cycle with treatment 5 cycle and vehicle 2 cycle with treatment 2 cycle, resp. (DOC) Click here for additional data file."}, "thymus cell populations": {"tested_on": "thymus cell populations", "assay": "Cell populations in thymus of normal mice", "type": "in vivo", "details": "54 mpk", "procedure": "as §1, §2, §3\nSupplementary file pone.0037207.s007.doc: Table S5 Effect of MRLB-11055 on Cell Populations in Thymus of Normal Mice. Cell counts measured by Advia. Cycles refer to 3 days of treatment followed by a 4 day holiday. *p<0.05 in Student T test when comparing vehicle 5 cycle with treatment 5 cycle and vehicle 2 cycle with treatment 2 cycle, resp. (DOC) Click here for additional data file."}, "[2]": {"details": "2 cycles (3 days treatment, 4 day holiday)"}, "[3]": {"details": "5 cycles (3 days treatment, 4 day holiday)"}}, "note": "Marks after values point to notes of the source that are not given here.", "data": [{"smiles": "NC(=O)c1cnc(N[C@H](C2CC2)C(F)(F)F)c2c1[nH]c1cc(-c3cnc(N)nc3)ccc12", "note": "[MRLB-11055]", "values": [{"measurement": "B-Cells (CD19+B220+) Immature AA4.1+ IgM+", "setting": "[1]; [2]", "result": "0.70 ± 0.04* x 10^6"}, {"measurement": "B-Cells (CD19+B220+) Mature AA4.1- IgM+", "setting": "[1]; [2]", "result": "0.54 ± 0.12 x 10^6"}, {"measurement": "B-Cells (CD19+B220+) Pro/pre AA4.1+ IgM-", "setting": "[1]; [2]", "result": "2.78 ± 0.92 x 10^6"}, {"measurement": "B-Cells (CD19+B220+) Total", "setting": "[1]; [2]", "result": "4.05 ± 0.94* x 10^6"}, {"measurement": "Erythroid Progenitors", "setting": "[1]; [2]", "result": "8.3 ± 0.9 x 10^6"}, {"measurement": "Mature Erythrocytes", "setting": "[1]; [2]", "result": "13.5 ± 0.7 x 10^6"}, {"measurement": "Myeloid GR-1+ CD11b+", "setting": "[1]; [2]", "result": "8.33 ± 0.85* x 10^6"}, {"measurement": "Nucleated Cells", "setting": "[1]; [2]", "result": "25.0 ± 4.0 x 10^6"}, {"measurement": "B-Cells (CD19+B220+) Immature AA4.1+ IgM+", "setting": "[1]; [3]", "result": "0.15 ± 0.05* x 10^6"}, {"measurement": "B-Cells (CD19+B220+) Mature AA4.1- IgM+", "setting": "[1]; [3]", "result": "0.38 ± 0.17* x 10^6"}, {"measurement": "B-Cells (CD19+B220+) Pro/pre AA4.1+ IgM-", "setting": "[1]; [3]", "result": "1.22 ± 0.74 x 10^6"}, {"measurement": "B-Cells (CD19+B220+) Total", "setting": "[1]; [3]", "result": "1.76 ± 0.87* x 10^6"}, {"measurement": "Erythroid Progenitors", "setting": "[1]; [3]", "result": "5.9 ± 1.9 x 10^6"}, {"measurement": "Mature Erythrocytes", "setting": "[1]; [3]", "result": "10.3 ± 3.2 x 10^6"}, {"measurement": "Myeloid GR-1+ CD11b+", "setting": "[1]; [3]", "result": "7.83 ± 3.46 x 10^6"}, {"measurement": "Nucleated Cells", "setting": "[1]; [3]", "result": "19.6 ± 7.2 x 10^6"}, {"measurement": "B-Cells (CD19+B220+) Immature AA4.1+ IgM+", "setting": "[1]; 3 days", "result": "0.22 ± 0.09* x 10^6"}, {"measurement": "B-Cells (CD19+B220+) Mature AA4.1- IgM+", "setting": "[1]; 3 days", "result": "0.32 ± 0.17* x 10^6"}, {"measurement": "B-Cells (CD19+B220+) Pro/pre AA4.1+ IgM-", "setting": "[1]; 3 days", "result": "0.24 ± 0.10* x 10^6"}, {"measurement": "B-Cells (CD19+B220+) Total", "setting": "[1]; 3 days", "result": "0.78 ± 0.35* x 10^6"}, {"measurement": "Erythroid Progenitors", "setting": "[1]; 3 days", "result": "0.5 ± 0.3* x 10^6"}, {"measurement": "Mature Erythrocytes", "setting": "[1]; 3 days", "result": "25.0 ± 5.5* x 10^6"}, {"measurement": "Myeloid GR-1+ CD11b+", "setting": "[1]; 3 days", "result": "2.07 ± 0.55* x 10^6"}, {"measurement": "Nucleated Cells", "setting": "[1]; 3 days", "result": "4.7 ± 1.6* x 10^6"}, {"measurement": "B-Cells (CD19+B220+) Immature AA4.1+ IgM+", "setting": "[1]; 6 days", "result": "0.11 ± 0.03* x 10^6"}, {"measurement": "B-Cells (CD19+B220+) Mature AA4.1- IgM+", "setting": "[1]; 6 days", "result": "0.59 ± 0.52 x 10^6"}, {"measurement": "B-Cells (CD19+B220+) Pro/pre AA4.1+ IgM-", "setting": "[1]; 6 days", "result": "0.08 ± 0.03* x 10^6"}, {"measurement": "B-Cells (CD19+B220+) Total", "setting": "[1]; 6 days", "result": "0.79 ± 0.54* x 10^6"}, {"measurement": "Erythroid Progenitors", "setting": "[1]; 6 days", "result": "1.4 ± 0.8* x 10^6"}, {"measurement": "Mature Erythrocytes", "setting": "[1]; 6 days", "result": "18.7 ± 2.5* x 10^6"}, {"measurement": "Myeloid GR-1+ CD11b+", "setting": "[1]; 6 days", "result": "1.90 ± 0.68* x 10^6"}, {"measurement": "Nucleated Cells", "setting": "[1]; 6 days", "result": "5.4 ± 2.2* x 10^6"}, {"measurement": "Thymus CD4+CD8+", "setting": "thymus cell populations; [2]", "result": "91.3 ± 0.3", "unit": "%"}, {"measurement": "Thymus CD4-CD8-", "setting": "thymus cell populations; [2]", "result": "3.0 ± 0.8", "unit": "%"}, {"measurement": "Thymus Cell Count", "setting": "thymus cell populations; [2]", "result": "75.4 ± 26.5 x 10^6"}, {"measurement": "Thymus Single Positive CD4+", "setting": "thymus cell populations; [2]", "result": "3.9 ± 0.8* %"}, {"measurement": "Thymus Single Positive CD8+", "setting": "thymus cell populations; [2]", "result": "0.55 ± 0.03* %"}, {"measurement": "Thymus CD4+CD8+", "setting": "thymus cell populations; [3]", "result": "90.7 ± 1.5", "unit": "%"}, {"measurement": "Thymus CD4-CD8-", "setting": "thymus cell populations; [3]", "result": "2.1 ± 0.6", "unit": "%"}, {"measurement": "Thymus Cell Count", "setting": "thymus cell populations; [3]", "result": "130.3 ± 27.1 x 10^6"}, {"measurement": "Thymus Single Positive CD4+", "setting": "thymus cell populations; [3]", "result": "5.0 ± 1.1", "unit": "%"}, {"measurement": "Thymus Single Positive CD8+", "setting": "thymus cell populations; [3]", "result": "1.4 ± 0.2* %"}, {"measurement": "Thymus CD4+CD8+", "setting": "thymus cell populations; 3 days", "result": "85.6 ± 2.4* %"}, {"measurement": "Thymus CD4-CD8-", "setting": "thymus cell populations; 3 days", "result": "3.5 ± 0.6", "unit": "%"}, {"measurement": "Thymus Cell Count", "setting": "thymus cell populations; 3 days", "result": "37.3 ± 13.4* x 10^6"}, {"measurement": "Thymus Single Positive CD4+", "setting": "thymus cell populations; 3 days", "result": "7.1 ± 1.3", "unit": "%"}, {"measurement": "Thymus Single Positive CD8+", "setting": "thymus cell populations; 3 days", "result": "2.7 ± 0.8", "unit": "%"}, {"measurement": "Thymus CD4+CD8+", "setting": "thymus cell populations; 6 days", "result": "87.9 ± 5.0", "unit": "%"}, {"measurement": "Thymus CD4-CD8-", "setting": "thymus cell populations; 6 days", "result": "2.4 ± 0.9", "unit": "%"}, {"measurement": "Thymus Cell Count", "setting": "thymus cell populations; 6 days", "result": "37.3 ± 12.1* x 10^6"}, {"measurement": "Thymus Single Positive CD4+", "setting": "thymus cell populations; 6 days", "result": "5.8 ± 2.7", "unit": "%"}, {"measurement": "Thymus Single Positive CD8+", "setting": "thymus cell populations; 6 days", "result": "2.7 ± 1.1", "unit": "%"}]}]}
